The values below come from patent US10597398B2, “Suppression and regeneration promoting effect of low molecular weight compound on cancer and fibrosis” (NATIONAL UNIVERSITY CORPORATION TOTTORI UNIVERSITY, priority 2015, dated 2020).

The structures appear in SMILES notation.

For test [1], the system named is DLD-1 cells (colon cancer cells). In words: Growth of colon cancer cells (Cell Counting Kit-8). The format is cell-based. To be noted: 10 or 50 μM, 48 h. The protocol:
DLD-1 cells (colon cancer cells) were cultured on 10-cm cell culture dishes (TPP Techno Plastic Products AG, Trasadingen, Switzerland) by using DMEM under conditions at 5% CO2, 37° C., and 100% humidity. For passage, 70 to 90% confluent cells were washed with PBS(−), and 300 μL of 0.25% Trypsin/1 mM EDTA per 2 mL of PBS(−) was added thereto. The cells were incubated at 37° C. for 5 min and were then detached. After that, 5 mL of DMEM was used to collect the cells. The cells collected were centrifuged at 1000 rpm for 3 min to remove a supernatant. The cells were then suspended in DMEM and were split at a 1:4 ratio.
DLD-1 cells were seeded at 5×10^5 cells/well of a 96-well plate (TPP). After 24 h, the cells were treated with 0, 10, or 50 μM of IC-2. Next, 48 h after the treatment, 100 μL of 10% Cell Counting Kit-8 (DOJINDO LABORATORIES, Kumamoto) was added. The mixture was incubated at 37° C. and its absorbance (at a measurement wavelength of 450 nm/control wavelength of 600 nm) was measured by using a Sunrise Rainbow RC (Tecan Group Ltd., Mannedorf, Switzerland).

For test [2], the system named is CD44high DLD-1 cells. Put plainly: CD44high cells in DLD-1 cells (FCM analysis). The conditions noted are these: 48 h, 50 μM IC-2, 0.5 or 5 μM 5-FU, compared with control. The format is cell-based, human. The method, then:
In addition, DLD-1 cells were seeded at 1×10^6 cells/10-cm cell culture dish. After 24 h, the cells were treated with 0.5 or 5 μM of 5-FU or 50 μM of IC-2. At additional 48 h, the cells were harvested. As a primary antibody, used was a mouse anti-human CD44 antibody (Abcam Ltd., Cambridge, UK). Then, Alexa Fluor 488-labeled goat anti-mouse IgG (H+L) (Life Technologies Corp., Carlsbad, Calif.) was used. After that, a MoFlo XDP (Beckman Coulter Inc., Fullerton, Calif.) was used for analysis.

In test [3] the test system is cancer stem cells (CD44) in HuH-7 cells. In words: Inhibitory effect on cancer stem cells (FCM analysis of CD44), Example 6.4. To be noted: CD44, day 2, IC-2 50 μM, 5-FU 0.5 μM, compared with control 1% DMSO. It counts as cell-based, human. The method, then: CD44, a cancer stem cell marker, was used as an indicator to examine an inhibitory effect of IC-2 on cancer stem cells. First, 70 to 90% confluent HuH-7 cells were harvested and seeded at 1.5×10^6 cells per 10-cm cell culture dish. After 15 h, the cells were treated with hexachlorophene (15 μM), ICG-001 (15 μM), PKF118-310 (5 μM), IC-2 (50 μM), or 5-FU (0.5 μM), and the mixture was cultured at 37° C. Each control sample used was 1% DMSO, a solvent for each compound or the anti-cancer drug. Day 2 after the drug treatment, the cells were harvested from each culture dish. The cells were centrifuged at 1000 rpm and at 4° C. for 5 min to remove a supernatant and were then washed twice with 1 mL of 0.5% FBS/2 mM EDTA/PBS. Next, the cells were suspended in 500 μL of 5% BSA/0.5% FBS/2 mM EDTA/PBS for blocking at 4° C. for 15 min.
Then, 5 μL of a mouse anti-human CD44 monoclonal antibody (156-3C11, Cell Signaling Technology Inc., Danvers, Mass.) was added to 500 μL of the cell suspension. The mixture was resuspended and subjected to a primary antibody reaction in a dark room at 4° C. for 10 min. After that, the cells were washed 3 times with 1 mL of PBS. Subsequently, 1.0 μg of Alexa Fluor 488-labeled IgG (H+L) (Life Technologies Corp., Carlsbad, Calif.) was added and the mixture was suspended. Then, a secondary antibody reaction was carried out in a dark room at 4° C. for 10 min. […]

In test [4] the test system is CD44-expressing HSC2 cells. Put plainly: CD44-expressing cells in HSC2 cells (cell sorter analysis). It counts as cell-based, human. To be noted: 48 h, 25 μM IC-2 or 0.5 μM 5-FU, 83.9% without treatment. The method, then: In addition, HSC2 cells were seeded at 5×10^5 cells/10-cm cell culture dish (TPP). After 24 h, the cells were treated with 0.5 μM of 5-FU or 25 μM of IC-2. Also prepared were cells without low-molecular-weight compound treatment (0 μM). After additional 48 h, the respective cells were harvested. As a primary antibody, used was a mouse anti-human CD44 antibody (Abcam Ltd., Cambridge, UK). Then, Alexa Fluor 488-labeled goat anti-mouse IgG (H+L) (Life Technologies Corp., Carlsbad, Calif.) was used. After that, a cell sorter BD bioscience FACS Aria (Becton, Dickinson and Company, Franklin Lakes, N.J.) was used for analysis.

Consider `O=C1C(Cc2ccccc2)N2C(=O)CCN(C(=O)NCc3ccccc3)C2CN1Cc1cccc2ccccc12` (stereo not shown) [IC-2], for which the “growth inhibitory effect on colon cancer cells” value in test [1] is on record as “elicited a growth inhibitory effect”. Moreover, the “percentage of CD44high cells” value in test [2] is “significantly reduced the percentage of CD44^high cells”. The “number of cancer stem cells” value in test [3] is “significant reduction in the number of cancer stem cells”. Also, the “percentage of CD44-expressing cells” value in test [4] is reported as 71.4%.
